# Results published in US20020032183A1, “Use of (di-substituted-phenyl)-pyrimidinyl-imidazole derivatives as JNK-inhibitors” (priority 2000, published 2002).
# Key:
# [1] = tested on: Rat superior cervical ganglion neurons; assay: Sympathetic neuronal survival assay (no NGF exposure; GAP-43 ELISA and cell counts); type: cell-based; settings: for Survival, ELISA Data Mean / Survival, Cell Counts Mean: 48 hours; for Survival, ELISA Data Mean: GAP-43 ELISA; for Survival, Cell Counts Mean: immunostained neurons per well
# Method: Activation of c-jun-N-terminal kinase (JNK) has been implicated in apoptosis in sympathetic neurons. An inhibitor of JNK, Example 2, was tested for neuroprotective effects in two models of sympathetic neuronal cell death.
# In the first model, ganglia were dissociated and plated directly into culture plates in the presence of compound for 48 hours, then fixed and survival assayed using an ELISA for GAP-43. This model will hereafter be referred to as the ‘survival assay’.
# Ganglia were enzymatically dissociated using 0.25% trypsin for 45 minutes. The trypsin was then inhibited using Dulbecco's MEM (DMEM) supplemented with 10% fetal bovine serum, and the cells mechanically triturated using a pipette tip to form a single cell suspension. Neurons in the suspension were counted using a haemocytometer, and plated at a density of 3000-5000 neurons per well in poly-D-lysine and laminin coated 96 well tissue culture clusters in DMEM supplemented with B27 serum substitute. Cultures were then incubated at 37° C./5% CO2. One hour following plating, cultures were either treated with NGF 25 ng/ml or with L-790,984 at a range of concentrations for the NGF deprivation and survival assays respectively.
# Cultures for the NGF deprivation assay were returned to the incubator for 4 days. Following this, the medium was aspirated, plates washed once with DMEM/B27, and the cultures treated with Example 2 at concentrations ranging from 1 nM to 10 μM, together with an anti-NGF blocking antibody at 250 ng/ml. Cultures were then returned to the incubator for a further 72 hours prior to fixation and survival quantification. Cultures treated with Example 2 immediately for the survival assay were returned to the incubator for 48 hours; cultures were then fixed and survival quantified using the GAP-43 ELISA.
# Cultures were fixed by the addition of an equal volume 4% paraformaldehyde to each well for 10 minutes; this was then aspirated, and replaced by a further volume of 4% paraformaldehyde for a further 20 minutes at room temperature. Plates were then washed three times with PBS/0.3% TX100, and non-specific binding sites blocked by the addition of 5% normal horse serum (NHS) in PBS/0.3% TX100. Plates were incubated at room temperature for one hour, then the blocking serum was aspirated without washing and replaced with primary antibody. The primary antibody used was a mouse monoclonal antibody raised against Growth Associated Protein 43 (Sigma), prepared at a dilution of 1:500 in PBS/0.3% TX100/5% NHS. Primary antibody was added to all sample wells, with four control wells returned to blocking serum to act as minus primary control. Plates were then refrigerated overnight at 4° C. The next day, plates were washed three times with PBS/0.3 TX100 and secondary antibody added. The secondary antibody used was peroxidase conjugated sheep anti-mouse IgG, and was added at a dilution of 1:1000 in PBS/0.3% TX100/5% NHS. Plates were incubated for 1 hour at room temperature, then washed three times with PBS/0.3% TX100, and K-Blue insoluble peroxidase substrate added for 30 minutes at room temperature. The optical density of the plates was then read at 650 nm, and the survival of neurons calculated and expressed as percentage of the control response.
# Cell counts were performed on one sample plate for each model of sympathetic neuronal cell death, by the addition of a tertiary antibody to the plate, followed by avidin-biotin complex and an insoluble peroxidase substrate. Following quantification of optical density, plates were washed three times in PBS/0.3% TX100, and non-specific sites blocked using PBS/0.3% TX100/5% normal rabbit serum (“NRS”). Plates were incubated for one hour at room temperature, then the blocking serum was aspirated and replaced with biotinylated rabbit anti-sheep IgG at a dilution of 1:500 in PBS/0.3% TX10O/5% NRS. […]
# JNK3α1 = target: T1, JNK3α1 (Homo sapiens, UniProt P53779); assay: Biochemical determination of inhibition of JNK3α1; settings: truncated JNK3α1, 1 μM ATP, 0.5 μM GST-ATF2, 30° C., 30 min
# T1 construct: Truncated JNK3α1 (amino acids 39-422) was expressed in E. coli; made in house; host or cells: E. coli
# T1 sequence (P53779 39-422 isoform P53779-2): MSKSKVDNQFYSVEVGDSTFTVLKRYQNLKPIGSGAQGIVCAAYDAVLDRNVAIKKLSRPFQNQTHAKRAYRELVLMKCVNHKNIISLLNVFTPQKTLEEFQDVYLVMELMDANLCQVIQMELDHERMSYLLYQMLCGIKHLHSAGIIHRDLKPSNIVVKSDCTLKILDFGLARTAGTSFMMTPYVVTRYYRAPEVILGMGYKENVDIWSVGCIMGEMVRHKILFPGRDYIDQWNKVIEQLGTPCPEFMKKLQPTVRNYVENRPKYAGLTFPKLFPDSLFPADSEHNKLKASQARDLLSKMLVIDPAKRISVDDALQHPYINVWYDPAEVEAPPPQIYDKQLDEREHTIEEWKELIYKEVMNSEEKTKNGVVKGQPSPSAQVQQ
# Method: Activation reactions were incubated at 30° C. for 2 h.
# Enzyme inhibition studies were performed at 30° C. for 30 min with 0.5 μM GST-ATF2, 1 μM ATP, 1 nM activated JNK3α1 and compound ranging from 30 pM to 100 μM. Reactions were carried out in 100 μL volumes containing the final concentrations of the following: 25 mM HEPES (Sigma) pH 7.4; 10 mM MgCl2 (Sigma); 2 mM DTT (Sigma); 20 mM β-glycerophosphate (Sigma); 0.1 mM Na3VO4 (Sigma); 2 μCi [γ-^33P]ATP (2000 Ci/mmol; 1 Ci=37 GBq) (Amersham Pharmacia Biotech, Piscataway, N.J.). Reactions were stopped with 100 μL 100 mM EDTA/15 mM sodium pyrophosphate. Immobilon™-P 96-well plates (Millipore MAIPNOB™ 10, available from the Millipore Corp., Bedford, Mass.) were pretreated with 100 μL methanol, followed by 100 μL 15 mM sodium pyrophosphate. Fifty μL of the stopped reaction was spotted in triplicate on the Immobilon™-P 96-well plate. The samples were vacuum-filtered and washed three times each with 100 μL 75 mM H3PO4 to remove unincorporated [γ-^33P]ATP. After the third H3PO4 wash and a final filtration step to remove H3PO4, 50 μL of Microscint™-20 (Packard BioScience Ltd., Pangbourne, Berkshire, U.K.) was added to each well and samples were analyzed on a Packard Topcount™ liquid scintillation counter. IC50 values were determined by fitting the data to the equation for a four parameter logistic.
structure (smiles),measurement,setting,value
"CCCn1c(C2CCN(C)CC2)nc(-c2ccc(Cl)c(Cl)c2)c1-c1ccnc(NC2CC2)n1 [Example 2, Cyclopropyl-{4-[5-(3,4-dichlorophenyl)-2-[(1-methyl)-piperidin]-4-yl-3-propyl-3H-imidazol-4-yl]-pyrimidin-2-yl}amine]","Survival, ELISA Data Mean",[1]; 0.01 μM,112.10
same,"Survival, Cell Counts Mean",[1]; 0.01 μM,115.50
same,"Survival, ELISA Data Mean",[1]; 0.03 μM,99.19
same,"Survival, Cell Counts Mean",[1]; 0.03 μM,127.25
same,"Survival, ELISA Data Mean",[1]; 0.1 μM,131.45
same,"Survival, Cell Counts Mean",[1]; 0.1 μM,170.50
same,"Survival, ELISA Data Mean",[1]; 0.3 μM,209.68
same,"Survival, Cell Counts Mean",[1]; 0.3 μM,267.50
same,"Survival, ELISA Data Mean",[1]; 1 μM,350.81
same,"Survival, Cell Counts Mean",[1]; 1 μM,363.00
same,"Survival, ELISA Data Mean",[1]; 3 μM,270.16
same,"Survival, Cell Counts Mean",[1]; 3 μM,321.00
same,Concentrations at which the survival response declines,[1]; data not shown,above 3 μM
same,Concentrations at which the survival response was significant,[1]; quantified by ELISA,≥ 300 nM
same,IC50,JNK3α1,7 nM
